Here are results for 30 molecules from ChEMBL document CHEMBL5727750, “Heterocyclic compounds as immunomodulators” (2020).

The EC50 is the concentration that produces a half-maximal response.

Values joined by “and” are separate entries in the source; they are usually repeats but may differ in a detail not shown here. Equal entries are not always repeated. Bounds are passed on as bounds.

The nature of the experiment: Nuclear Factor of Activated T-Cells (NFAT) Assay: PD-L1 aAPC/CHO-Klcells (Promega) were maintained in F-12 medium with addition of 10% FBS, 200 μg/ml Hygromycin B, 250 μg/ml Geneticin (G418). Jurkat-PD-1-NFAT effector cells (Promega) were cultured in RPMI 1640 medium supplemented with 10% FBS, 100 μg/ml Hygromycin B, 500 μg/ml G418. The culture media of PD-L1 aAPC/CHO-K1 cells were first replaced with assay medium (RPMI1640 medium with 1% FBS). The PD-L1 aAPC/CHO-K1 cells were then added in a white 384-well white clear bottom assay plate (CELLCOAT® Tissue Culture Plates, Greiner Bio-One) at 8000 per well in 10 μL assay medium. Test compounds were prepared by serial dilution in DMSO and 0.8 μL test compounds in DMSO were first transferred to the 384 REMP plate well (Thermofisher) by PlateMate Plus (Thermofisher) followed with addition of 50 μL plating medium. 5 μL compounds in the assay medium were transferred to the cells with 0.4% DMSO in the final assay at 2 μM. After removing the culture media, 10,000 Jurkat-PD-1-NFAT effector cells in 5 μL assay medium was dispensed into each well. The assay plate was incubated at 37° C., 5% CO2 for 24 hours. After the assay plate was equilibrated to room temp for 15 minutes, 20 µL/well of Bio-Glo™ reagent (Promega) were added. After 8 minutes incubation at room temperature, luminescence was read at with Pherastar microplate reader (BMG Labtech). The fold of induction (FOI) was calculated based on the ratio of luminescence normalized to the DMSO wells within each assay plate. The maximum percentage of induction was reported based on the ratio between the highest FOI of each compound and the maximum FOI of control compound within each assay plate. Wells with DMSO were served as the negative controls and wells containing control compound with the highest FOI were used as positive controls. EC50 determination was performed by fitting the curve of percent control activity versus the log of the compound concentration using the GraphPad Prism 6.0 software.
Regarding `Cc1c(Nc2nc(N)nc3cc(CN4CC[C@@H](O)C4)cnc23)cccc1-c1cccc(-c2nc3cc(CN4CCC(C(=O)O)CC4)cc(C#N)c3o2)c1C`, the EC50 was 10 to 100 nM.
Turning to `Cc1c(Nc2nc(C(F)F)nc3cc(CN4CC[C@@H](O)C4)cnc23)cccc1-c1cccc(-c2nc3cc(CN4CCC(C)(C(=O)O)CC4)cc(C#N)c3o2)c1C`, the EC50 was 10 to 100 nM.
On to `Cc1nc(Nc2cccc(-c3cccc(-c4nc5cc(CN6CCC(C(=O)O)CC6)cc(C#N)c5o4)c3C)c2C)c2ncc(CNC[C@H](C)O)cc2n1`, for which the EC50 result is “in the range around 55 nM”.
`Cc1c(Nc2nc(CO)nc3cc(CN4CC[C@@H](O)C4)cnc23)cccc1-c1cccc(-c2nc3cc(CN4CCC(C(=O)O)CC4)cc(C#N)c3o2)c1C`: the EC50 is 10 to 100 nM.
For the molecule `Cc1c(Nc2nc(C(F)F)nc3cc(CN4CC[C@](C)(O)C4)cnc23)cccc1-c1cccc(-c2nc3cc(CN4CCC(C(=O)O)CC4)cc(C#N)c3o2)c1C`, the half-maximal effective concentration (EC50) was less than 10 nM.
`Cc1c(Nc2nc(C(F)F)nc3cc(CN4CC[C@@H](O)C4)cnc23)cccc1-c1cccc(-c2nc3cc(CN4CCC(C(=O)N(C)C)CC4)cc(C#N)c3o2)c1C`: the EC50 is 10 to 100 nM.
For `Cc1nc(Nc2cccc(-c3cccc(-c4nc5cc(CN6CC[C@@H](C(=O)O)C6)cc(C#N)c5o4)c3C)c2C)c2ncc(CN3CC[C@](C)(O)C3)cc2n1`, the concentration giving a half-maximal response (EC50) was 10 to 100 nM.
Regarding `Cc1nc(Nc2cccc(-c3cccc(-c4nc5cc(CN6CC[C@@H](C(=O)O)C6)cc(C#N)c5o4)c3C)c2C)c2ncc(CNC[C@H](C)O)cc2n1`, the 50% effective concentration (EC50) was 10 to 100 nM.
`Cc1c(Nc2nc(C(F)F)nc3cc(CN4CC[C@@H](O)C4)cnc23)cccc1-c1cccc(-c2nc3cc(CN4CC[C@@H](C(=O)O)C4)cc(C#N)c3o2)c1C`: the 50% effective concentration (EC50) is 10 nM and 100 nM and in the range around 55 nM.
For `Cc1c(Nc2nc(C(F)F)cc3cc(CN4CC[C@@H](O)C4)cnc23)cccc1-c1cccc(-c2nc3cc(CN4CC[C@@](C)(C(=O)O)C4)cc(C#N)c3o2)c1C`, the concentration for a half-maximal effect (EC50) was less than 10 nM.
With `Cc1nc(Nc2cccc(-c3cccc(-c4nc5cc(CN6CCC(C(=O)O)CC6)cc(C#N)c5o4)c3C)c2C)c2ncc(CN3CC[C@](C)(O)C3)cc2n1`, the concentration for a half-maximal effect (EC50) was 10 to 100 nM.
Regarding `Cc1c(Nc2nc(C(F)F)nc3cc(CN4CC[C@@H](O)C4)cnc23)cccc1-c1cccc(-c2nc3cc(CN4CC[C@@](C)(C(=O)O)C4)cc(C#N)c3o2)c1C`, the EC50 was 10 nM and 100 nM and in the range around 55 nM.
Consider `Cc1nc(Nc2cccc(-c3cccc(-c4nc5cc(CN6CC[C@@](C)(C(=O)O)C6)cc(C#N)c5o4)c3C)c2C)c2ncc(CN[C@@H](C)CO)cc2n1`, for which the EC50 entry is “in the range around 55 nM”.
To `Cc1nc(Nc2cccc(-c3cccc(-c4nc5cc(CN6CC[C@@H](C(=O)O)C6)cc(C#N)c5o4)c3C)c2C)c2ncc(CN[C@@H](C)CO)cc2n1` belongs 10 to 100 nM.
On to `Cc1nc(Nc2cccc(-c3cccc(-c4nc5cc(CN6CCC(C(=O)O)CC6)cc(C#N)c5o4)c3C)c2C)c2ncc(CN3CC[C@@H](O)C3)cc2n1`, for which the concentration for a half-maximal effect (EC50) was 10 to 100 nM.
Consider `Cc1c(Nc2nc(C(F)F)nc3cc(CN4CC[C@@H](O)C4)cnc23)cccc1-c1cccc(-c2nc3cc(CN4CC[C@H](C(=O)O)C4)cc(C#N)c3o2)c1C`, for which the EC50 was 10 to 100 nM.
As to `Cc1nc(Nc2cccc(-c3cccc(-c4nc5cc(CN6CC[C@@](C)(C(=O)O)C6)cc(C#N)c5o4)c3C)c2C)c2ncc(CNC[C@H](C)O)cc2n1`, the concentration giving a half-maximal response (EC50) result is “in the range around 55 nM”.
In the case of `CNC(=O)C1CCN(Cc2cc(C#N)c3oc(-c4cccc(-c5cccc(Nc6nc(C(F)F)nc7cc(CN8CC[C@@H](O)C8)cnc67)c5C)c4C)nc3c2)CC1`, the concentration giving a half-maximal response (EC50) was less than 10 nM.
For the molecule `Cc1c(Nc2nc(C3CC3)nc3cc(CN4CC[C@@H](O)C4)cnc23)cccc1-c1cccc(-c2nc3cc(CN4CC[C@@H](C(=O)O)C4)cc(C#N)c3o2)c1C`, the EC50 result was “in the range around 55 nM”.
`Cc1c(Nc2nc(C(F)F)nc3cc(CN4CC[C@@](C)(O)C4)cnc23)cccc1-c1cccc(-c2nc3cc(CN4CCC(C(=O)O)CC4)cc(C#N)c3o2)c1C`: the EC50 was less than 10 nM.
To `Cc1nc(Nc2cccc(-c3cccc(-c4nc5cc(CN6CC[C@@H](C(=O)O)C6)cc(C#N)c5o4)c3C)c2C)c2ncc(CN3CC[C@@](C)(O)C3)cc2n1` belongs 10 to 100 nM; to `Cc1nc(Nc2cccc(-c3cccc(-c4nc5cc(CN6CC[C@@](C)(C(=O)O)C6)cc(C#N)c5o4)c3C)c2C)c2ncc(CN3CC[C@@](C)(O)C3)cc2n1`, 10 to 100 nM; to `Cc1c(Nc2nc(C(F)F)nc3cc(CN4CC[C@@H](O)C4)cnc23)cccc1-c1cccc(-c2nc3cc(CN4CC[C@](C)(C(=O)O)C4)cc(C#N)c3o2)c1C`, less than 10 nM.
Take `Cc1nc(Nc2cccc(-c3cccc(-c4nc5cc(CN6CCC(C(=O)O)CC6)cc(C#N)c5o4)c3C)c2C)c2ncc(CN3CC[C@@](C)(O)C3)cc2n1`: the concentration for a half-maximal effect (EC50) is 10 to 100 nM.
`Cc1nc(Nc2cccc(-c3cccc(-c4nc5cc(CN6CC[C@@](C)(C(=O)O)C6)cc(C#N)c5o4)c3C)c2C)c2ncc(CN3CC[C@](C)(O)C3)cc2n1`: the EC50 is 10 to 100 nM.
Turning to `Cc1c(Nc2nc(C(F)F)nc3cc(CN4CC[C@@H](O)C4)cnc23)cccc1-c1cccc(-c2nc3cc(CN4CCC(C(=O)NCCC(=O)O)CC4)cc(C#N)c3o2)c1C`, the concentration giving a half-maximal response (EC50) was 10 to 100 nM.
With `Cc1nc(Nc2cccc(-c3cccc(-c4nc5cc(CN6CC[C@@](C)(C(=O)O)C6)cc(C#N)c5o4)c3C)c2C)c2ncc(CN3CC[C@@H](O)C3)cc2n1`, the EC50 was 10 to 100 nM.
As for `Cc1nc(Nc2cccc(-c3cccc(-c4nc5cc(CN6CC[C@@H](C(=O)O)C6)cc(C#N)c5o4)c3C)c2C)c2ncc(CN3CC[C@@H](O)C3)cc2n1`, the EC50 was 10 to 100 nM and < 10 nM.
With `Cc1nc(Nc2cccc(-c3cccc(-c4nc5cc(CN6CCC(C(=O)O)CC6)cc(C#N)c5o4)c3C)c2C)c2ncc(CN[C@@H](C)CO)cc2n1`, the EC50 result is “in the range around 55 nM”.
In the case of `Cc1c(Nc2nc(C(F)F)nc3cc(CN4CC[C@@H](O)C4)cnc23)cccc1-c1cccc(-c2nc3cc(CN4CCC(C(=O)O)CC4)cc(C#N)c3o2)c1C`, the EC50 entry is “in the range around 55 nM”.
